The values that follow come from the RepoRT retention time repository (doi:10.1007/s11306-011-0298-z).

The data set is described as follows: RP, Waters ACQUITY UPLC HSS T3, 100 × 2.1 mm, 1.8 µm, 30 °C, 0.3 mL/min, estimated dead time 0.73 min; A: water + 0.1% formic acid, pH 3; B: methanol + 0.1% formic acid, pH 3; gradient (min/%B) 0/0 6/0 56/100 60/100. The note with it: stereoisomer not certain.
For the compound `NCCC[C@H](N)C(=O)O` [L-ornithine], the LC retention time is 1.1 min.

Turning to `CCOc1cc(C=O)ccc1O` [3-ethoxy-4-hydroxybenzaldehyde], the LC retention time was 27.2 min.

Consider `OCC1OC(OCC2OC(O)C(O)C(O)C2O)C(O)C(O)C1O` (stereo unspecified) [melibiose], for which the LC retention time is 1.4 min.

For the compound `COc1ccc2oc(-c3ccccc3)cc(=O)c2c1` [6-methoxyflavone], the LC retention time was 42.9 min.

Take `O=c1[nH]c(=O)c2[nH]cnc2[nH]1` [xanthine]: the LC retention time is 6.01 min.

As for `NCCc1cnc[nH]1` [histamine], the LC retention time is 1.1 min.

Consider `O=C(O)c1cccnc1` [nicotinic acid], for which the LC retention time is 2.98 min.

For the compound `Oc1ccccc1O` [pyrocatechol], the LC retention time is 13 min.

Regarding `CCCCCCC=CCCCCCCCC(=O)OC` [methyl palmitoleate], the LC retention time is 54.9 min.

On to `Oc1ccc(C2Oc3cc(O)cc(O)c3CC2O)cc1` (stereo unspecified) [epiafzelechin], for which the LC retention time is 24.4 min.

On to `Nc1ccccc1C(=O)O` [anthranilic acid], for which the LC retention time is 19.1 min.

As to `C1COCCN1` [morpholine], the LC retention time was 1.4 min.

For `Oc1ccc(C2Oc3cc(O)cc4c3C2c2cc(O)cc(O)c2C(c2ccc(O)cc2)C4C2c3cc(O)cc4c3C(c3cc(O)cc(O)c3C2c2ccc(O)cc2)C(c2ccc(O)cc2)O4)cc1` (stereo unspecified) [isohopeaphenol], the LC retention time is 25.9 min.

For the compound `Oc1ccc(C=C2c3cc(O)cc(O)c3C(c3ccc(O)cc3)C2c2cc(O)cc(O)c2)cc1` (stereo unspecified) [ampelopsin D + quadrangularin A], the LC retention time was 26.2 min.

Consider `COC(=O)c1cc(O)c(O)c(O)c1` [methyl gallate], for which the LC retention time is 18.2 min.

Regarding `CCCCCCCCCCCCCCCCCCC(=O)OC` [methyl nonadecanoate], the LC retention time is 58.5 min.

For the compound `CC1OC(Oc2c(-c3cc(O)c(O)c(O)c3)oc3cc(O)cc(O)c3c2=O)C(O)C(O)C1O` (stereo unspecified) [Myricitrin (myricetin 3-O-rhamnoside)], the LC retention time is 28.3 min.

As for `O=C(O)C=Cc1ccccc1` [cinnamic acid], the LC retention time was 31.8 min.

Turning to `COc1cc(-c2oc3cc(O)cc(O)c3c(=O)c2OC2OC(CO)C(O)C(O)C2O)ccc1O` (stereo unspecified) [isorhamnetin 3-glucoside], the LC retention time is 31.5 min.

Turning to `CCC(C)CN` (stereo unspecified) [2-methylbutylamine], the LC retention time was 6.5 min.

As to `CCCCCCCCCCCCCCCCC(=O)OC` [methyl heptadecanoate], the LC retention time is 57.1 min.

`CC1CCC2(C(=O)O)CCC3(C)C(=CCC4C5(C)CCC(O)C(C)(C)C5CCC43C)C2C1C` (stereo unspecified) [ursolic acid]: the LC retention time was 53.6 min.

For the compound `O=C(O)c1ccc(O)c(O)c1` [protocatechuic acid], the LC retention time was 13.9 min.

For the compound `Oc1cc(O)c2c(c1)OC(c1ccc(O)c(O)c1)C(O)C2` (stereo unspecified) [epicatechin], the LC retention time was 20.5 min.

With `O=C1c2c(O)cc(O)cc2OC(c2ccc(O)cc2)C1O` (stereo unspecified) [dihydrokaempferol], the LC retention time was 27.8 min.

For the compound `COC(=O)c1ccccc1O` [methylsalicylate ester], the LC retention time was 34.5 min.

For the compound `CSCC[C@H](N)C(=O)O` [L-methionine], the LC retention time is 2.8 min.

`COc1cc(C=CC=O)ccc1O` [coniferyl aldehyde]: the LC retention time was 25.9 min.

Consider `O=c1cc(-c2ccc(O)cc2)oc2cc(O)cc(O)c12` [apigenin], for which the LC retention time was 37.1 min.

As to `CC1(C)CCC2(CO)CCC3(C)C(=CCC4C5(C)CCC(O)C(C)(C)C5CCC43C)C2C1` (stereo unspecified) [erythrodiol], the LC retention time is 53.8 min.

Take `CC(C)C(O)(CC(=O)O)C(=O)O` (stereo unspecified) [isopropyl malic acid]: the LC retention time is 18.1 min.

On to `COc1cc(C(C)=O)ccc1O` [Acetovanillone], for which the LC retention time was 23.9 min.

Regarding `COc1cc(O)c2c(=O)c(O)c(-c3ccc(O)c(O)c3)oc2c1` [rhamnetin], the LC retention time was 38.9 min.

Regarding `COc1cc(-c2oc3cc(=O)cc4oc(C(=O)O)cc(c2OC2OC(CO)C(O)C(O)C2O)c43)cc(OC)c1O` (stereo unspecified) [vitisin A], the LC retention time was 28.3 min.

With `O=c1cc(O)c2ccccc2o1` [4-hydroxycoumarin], the LC retention time was 24.2 min.

For the compound `COc1cc(-c2oc3cc(=O)cc(O)c-3cc2OC2OC(CO)C(O)C(O)C2O)cc(OC)c1O` (stereo unspecified) [malvidin-3-galactoside], the LC retention time is 24.2 min.

In the case of `O=c1cc(-c2ccc(O)cc2)oc2cc(OC3OC(CO)C(O)C(O)C3O)cc(O)c12` (stereo unspecified) [apigenin-7-O-glucoside], the LC retention time was 28.9 min.

On to `O=c1cc(-c2ccccc2)oc2cc(O)cc(O)c12` [chrysin], for which the LC retention time is 40.9 min.

As to `O=C(O)C(O)CO` (stereo unspecified) [glyceric acid], the LC retention time is 1.45 min.

As for `CC=CC=CC(=O)O` [sorbic acid], the LC retention time was 25.1 min.

In the case of `O=C(O)c1ccc2c(c1)OCO2` [piperonylic acid], the LC retention time is 26.7 min.

On to `O=c1c(OC2OC(C(O)CO)C(O)C2O)c(-c2ccc(O)c(O)c2)oc2cc(O)cc(O)c12` (stereo unspecified) [quercetin 3-glucoside], for which the LC retention time was 29.1 min.

In the case of `OCC1OC(Oc2cc3c(O)cc(O)cc3[o+]c2-c2ccc(O)c(O)c2)C(O)C(O)C1O` (stereo unspecified) [cyanidin 3 galactoside], the LC retention time was 22.1 min.

In the case of `NCCCN` [1,3 diaminopropane], the LC retention time is 1 min.

Regarding `CC(C)=CCCC(C)=CCOC(=O)Cc1ccccc1` [geranyl phenylacetate], the LC retention time is 54.6 min.

For `O=C(O)c1cc(O)ccc1O` [gentisic acid], the LC retention time was 17 min.

`O=Cc1ccco1` [furfural]: the LC retention time is 12.2 min.

Consider `O=C1OC(C(O)CO)C(=O)C1=O` (stereo unspecified) [dehydroascorbic acid], for which the LC retention time is 1.72 min.

In the case of `OCCc1c[nH]c2ccccc12` [trypthophol], the LC retention time is 26.2 min.

Turning to `O=C(O)C=C(CC(=O)O)C(=O)O` [cis-acotinic acid], the LC retention time is 4.4 min.

On to `COc1cc2ccc(=O)oc2c(OC2OC(CO)C(O)C(O)C2O)c1O` (stereo unspecified) [fraxin], for which the LC retention time was 20.9 min.

In the case of `O=C(OCc1ccccc1)c1ccccc1` [benzyl benzoate], the LC retention time is 43.5 min.

In the case of `COc1cc(-c2oc3cc(=O)cc4occc(c2OC2OC(CO)C(O)C(O)C2O)c43)cc(OC)c1O` (stereo unspecified) [vitisin B], the LC retention time was 27 min.

Regarding `O=C(O)C[C@H](O)C(=O)O` [L-malic acid], the LC retention time is 2 min.

On to `CCCCCC=CCC=CCCCCCCCC(=O)OCC` [ethyl linoleate], for which the LC retention time was 56.1 min.

For `COc1cc(C=NN=Cc2cc(OC)c(O)c(OC)c2)cc(OC)c1O` [syringaldazine], the LC retention time was 35.5 min.

In the case of `CCCCCCCCCC(=O)O` [decanoic acid], the LC retention time is 45.6 min.

As to `NCCCCCN` [cadaverine], the LC retention time was 1.1 min.

Consider `O=CC(O)C(O)C(O)C(O)CO` (stereo unspecified) [altrose], for which the LC retention time is 1.43 min.

Consider `Nc1nc2ncc(CNc3ccc(C(=O)NC(CCC(=O)O)C(=O)O)cc3)nc2c(=O)[nH]1` (stereo unspecified) [folic acid], for which the LC retention time was 21.3 min.

Turning to `COc1ccc(C2CC(=O)c3c(O)cc(O)cc3O2)cc1O` (stereo unspecified) [hesperetin], the LC retention time is 34.8 min.

In the case of `Cc1ncc(CO)c(CO)c1O` [pyridoxine], the LC retention time was 4.9 min.

As for `CC(C)(C)c1cc(O)ccc1O` [tert-butylhydroquinone], the LC retention time was 30.5 min.

Consider `O=C(O)CC(=O)O` [malonic acid], for which the LC retention time was 2.11 min.

In the case of `Cc1ncc(CO)c(CN)c1O` [pyridoxamine], the LC retention time is 1.42 min.

As for `O=Cc1c[nH]c2ccccc12` [Indole-3-aldehyde], the LC retention time is 25.1 min.

Regarding `CC(CCC(=O)O)C1CCC2C3C(O)C(O)C4CC(O)CCC4(C)C3CCC12C` (stereo unspecified) [Hyocholic acid], the LC retention time is 45.6 min.

With `N[C@@H](Cc1cnc[nH]1)C(=O)O` [L-histidine], the LC retention time is 1.2 min.

Regarding `N[C@@H](Cc1ccc(O)cc1)C(=O)O` [L-tyrosine], the LC retention time is 6.08 min.

Regarding `CCCCCCCC/C=C\CCCCCCCCCC(=O)O` [cis-11-eicosenoic acid], the LC retention time was 56.2 min.

As to `CN1CCCC1c1cccnc1` (stereo unspecified) [nicotine], the LC retention time is 4.64 min.

Turning to `N#CC(OC1OC(COC2OC(CO)C(O)C(O)C2O)C(O)C(O)C1O)c1ccccc1` (stereo unspecified) [amygdalin], the LC retention time was 19.3 min.

Take `O=C(O)C=Cc1ccccc1O` [o-coumaric acid]: the LC retention time is 28.1 min.

For `Oc1cc(O)c2c(c1)OC1(c3ccc(O)c(O)c3)Oc3cc(O)c4c(c3C2C1O)OC(c1ccc(O)c(O)c1)C(O)C4` (stereo unspecified) [procyanidin-A2], the LC retention time was 25.2 min.

For `OCC1OC(OCC2OC(OC3(CO)OC(CO)C(O)C3O)C(O)C(O)C2O)C(O)C(O)C1O` (stereo unspecified) [raffinose], the LC retention time was 2.6 min.

For the compound `CCNCC` [diethylamine], the LC retention time was 1.68 min.

As to `O=C(C=CC=Cc1ccc2c(c1)OCO2)N1CCCCC1` [piperine], the LC retention time is 40.7 min.

On to `Cc1cc(=O)oc2cc(O)ccc12` [4-methylumbelliferone], for which the LC retention time is 27.8 min.

With `CCCCC/C=C\C/C=C\CCCCCCCC(=O)O` [linoleic acid], the LC retention time was 53.6 min.

Turning to `O=Cc1ccc(CO)o1` [5-hydroxymethyl-2-furaldehyde], the LC retention time was 11.9 min.

For `CC(C)=CCCC(C)=CCOC1OC(CO)C(O)C(O)C1O` (stereo unspecified) [geranyl glucoside], the LC retention time is 36.7 min.
